Some test systems named below: UACC-257; SK-MEL-5; MCF7; HCT-116; IGROV-1; SF-539; HT-29; SK-MEL-28; OVCAR-4; SK-MEL-2; KM12; CCRF-CEM; A498; SF-295; NCI-H226; DU-145; MDA-MB-231; 786-0; M14; Hs-578T.
Assay in all cases: DTP human tumour cell line panel, 48 h

Structures are written as SMILES.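 Growth conditions: 96-well plates. Treatment: test compound, 48 hours, 5 concentrations. Analysis: linear interpolation between bracketing concentrations; unreached endpoints set to highest concentration. Abbreviation: GI50, concentration required for 50% inhibition of growth.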 Active and inactive are the calls of the source. Cut-off read from the data, not from the text of the source: active = GI50 up to about 1.1 µM and inactive = higher. Some results are limits rather than exact numbers.

Turning to `C=C1C(=O)O[C@H]2C1[C@H](OC(=O)/C(C)=C\COC(C)=O)C[C@]1(CO1)[C@@H]1[C@H](O)[C@H]3O[C@@]3(C)[C@@H]12` (some centres not stated), the GI50 (commonly the concentration at which growth is held to half of that of the control) is 16.8 µM (inactive) with UACC-257; 18.6 µM (inactive) in the experiment on SK-MEL-5; 11.5 µM (inactive) in the experiment on MCF7; 13.1 µM (inactive) in the experiment with HCT-116; 24 µM (inactive) with IGROV-1; 27 µM (inactive) in the experiment with SF-539. For the same compound, the GI50 is 19.1 µM (inactive) in the experiment on HT-29; 15.5 µM (inactive) with SK-MEL-28; 27 µM (inactive) in the experiment with OVCAR-4; 20.7 µM (inactive) in the experiment on SK-MEL-2; 14.8 µM (inactive) in the experiment on KM12; 10.5 µM (inactive) with CCRF-CEM. The GI50 in the experiment with A498 was 61.5 µM (inactive); in the experiment on SF-295, > 61 µM (inactive); in the experiment on NCI-H226, 26.8 µM (inactive).

Consider `COC(=O)CP1(=O)OC2C(C3CCC2(C)C3(C)C)N1c1cc(C(F)(F)F)cc(C(F)(F)F)c1` (configuration not stated), for which the GI50 in the experiment with UACC-257 was 32.8 µM (inactive); with SK-MEL-5, 36.3 µM (inactive); in the experiment on MCF7, > 100 µM (inactive); in the experiment with HCT-116 it was 12.6 µM (inactive); in the experiment on DU-145, 31.3 µM (inactive); in the experiment with IGROV-1 it was 45.7 µM (inactive). In addition, the GI50 in the experiment with SF-539 is 21.9 µM (inactive); in the experiment with HT-29, 26.1 µM (inactive); with SK-MEL-28, 42.9 µM (inactive); in the experiment on MDA-MB-231, 20.6 µM (inactive); in the experiment with OVCAR-4, 13.5 µM (inactive); with SK-MEL-2, 20.9 µM (inactive). In addition, the GI50 with KM12 is 17.1 µM (inactive); in the experiment with 786-0 it was 18.2 µM (inactive); with A498, > 100 µM (inactive); in the experiment with SF-295, 19.7 µM (inactive); in the experiment with NCI-H226 it was 31.6 µM (inactive); in the experiment with M14, 32.3 µM (inactive).

As for `C=C1C(=O)OC2/C=C(\C)CC(O)/C=C(/CO)CC(OC(=O)/C(C)=C/C)C12` (configuration not stated), the GI50 was 45.6 µM (inactive) in the experiment on UACC-257; 14.8 µM (inactive) in the experiment on SK-MEL-5; 21.7 µM (inactive) in the experiment with MCF7; 29.6 µM (inactive) in the experiment with HCT-116; 37.8 µM (inactive) with IGROV-1; 29 µM (inactive) in the experiment on SF-539. Besides, the GI50 was 54.6 µM (inactive) in the experiment on HT-29; 14.8 µM (inactive) with SK-MEL-28; 117 µM (inactive) with OVCAR-4; 51.9 µM (inactive) with SK-MEL-2; 45 µM (inactive) with KM12; 13.9 µM (inactive) in the experiment with CCRF-CEM. Further, the GI50 in the experiment on A498 is 26.8 µM (inactive); with SF-295, 163 µM (inactive); in the experiment with NCI-H226 it was 30 µM (inactive).

In the case of `COc1ccc(CCCNC(=O)Cc2ccccc2CO)cc1OC`, the GI50 with UACC-257, with SK-MEL-5, in the experiment on HCT-116, with DU-145, with IGROV-1 and with Hs-578T was > 100 µM (inactive) throughout. Besides, the GI50 in the experiment with HT-29, in the experiment on SK-MEL-28, in the experiment on MDA-MB-231, with OVCAR-4, with SK-MEL-2 and with KM12 was > 100 µM (inactive) in each case. In addition, the GI50 with 786-0, in the experiment with CCRF-CEM, in the experiment with A498, in the experiment with NCI-H226 and in the experiment on M14 was > 100 µM (inactive) in each case.

Consider `COc1cc(C=O)ccc1Oc1nnnn1-c1ccccc1`, for which the GI50 in the experiment on UACC-257 was > 100 µM (inactive); in the experiment with SK-MEL-5, 20.1 µM (inactive); in the experiment with HCT-116 it was 29.8 µM (inactive); in the experiment with DU-145 it was 32.1 µM (inactive); with IGROV-1 it was 84.1 µM (inactive); in the experiment with Hs-578T it was 48.6 µM (inactive). Besides, the GI50 in the experiment with HT-29 is 86.7 µM (inactive); in the experiment on SK-MEL-28, 72.4 µM (inactive); in the experiment on MDA-MB-231, > 100 µM (inactive); in the experiment on OVCAR-4, 50.9 µM (inactive); with SK-MEL-2, > 100 µM (inactive); in the experiment with KM12, 55 µM (inactive). Also, the GI50 with 786-0 was > 100 µM (inactive); in the experiment on CCRF-CEM, 19.6 µM (inactive); with SF-295, > 100 µM (inactive); with NCI-H226 it was < 0.01 µM (active); in the experiment on M14, 31.8 µM (inactive).

Turning to `Cc1c(N)nc(C(CC(N)=O)NCC(N)C(N)=O)nc1C(=O)NC(C(=O)NC(C)C(O)C(C)C(=O)NC(C(=O)NCCc1nc(-c2nc(C(=O)NCCCNCCCCN)cs2)cs1)C(C)O)C(OC1OC(CO)C(O)C(O)C1OC1OC(CO)C(O)C(OC(N)=O)C1O)c1c[nH]cn1` (configuration not stated), the GI50 in the experiment on UACC-257 is > 10 µM (inactive); with SK-MEL-5, 2.43 µM (inactive); in the experiment with HCT-116, 1.29 µM (inactive); in the experiment with IGROV-1 it was > 10 µM (inactive); with SF-539 it was 0.0655 µM (active); in the experiment with HT-29, > 10 µM (inactive). Besides, the GI50 in the experiment on SK-MEL-28 is > 10 µM (inactive); with OVCAR-4 it was > 6.46 µM (inactive); in the experiment on SK-MEL-2, > 10 µM (inactive); in the experiment with KM12 it was > 10 µM (inactive); in the experiment with 786-0, 4.01 µM (inactive); in the experiment on CCRF-CEM, > 10 µM (inactive). Also, the GI50 in the experiment with A498 is > 10 µM (inactive); in the experiment with SF-295, 0.0731 µM (active); with NCI-H226, 0.233 µM (active); in the experiment on M14 it was 1.67 µM (inactive).

In the case of `CCC/C(=N\NC(=O)c1cc2ccccc2cc1O)C(CC)C(=O)CCC(=O)N(Cc1ccccc1)Cc1ccccc1` (configuration not stated), the GI50 is 36.1 µM (inactive) in the experiment with UACC-257; 23.4 µM (inactive) in the experiment with SK-MEL-5; 41 µM (inactive) with HCT-116; 34.5 µM (inactive) in the experiment with IGROV-1; 48.1 µM (inactive) with SF-539; 83.2 µM (inactive) with HT-29. The GI50 in the experiment on SK-MEL-28 is > 100 µM (inactive); in the experiment on OVCAR-4 it was 59 µM (inactive); in the experiment with SK-MEL-2, 28.6 µM (inactive); in the experiment with KM12, 96.6 µM (inactive); in the experiment with 786-0, 25.7 µM (inactive); with CCRF-CEM it was 7.62 µM (inactive). In addition, the GI50 with A498 was 85.9 µM (inactive); in the experiment on SF-295, 33.9 µM (inactive); in the experiment on NCI-H226, 47.3 µM (inactive); with M14, 32.7 µM (inactive).

As to `CCOC(=O)[C@@]12CCC(C1=O)[C@](C)(O)C[C@@H]2c1ccccc1`, the GI50 was 75 µM (inactive) in the experiment on UACC-257; 35.2 µM (inactive) in the experiment with SK-MEL-5; 32.6 µM (inactive) with HCT-116; 85.9 µM (inactive) in the experiment on DU-145; 35.4 µM (inactive) in the experiment with IGROV-1; 22.6 µM (inactive) in the experiment with Hs-578T. In addition, the GI50 with SF-539 was 32.7 µM (inactive); in the experiment on HT-29, 29.2 µM (inactive); in the experiment with SK-MEL-28, 79.3 µM (inactive); with MDA-MB-231, 36.5 µM (inactive); in the experiment on OVCAR-4, > 100 µM (inactive); in the experiment on SK-MEL-2, 38.1 µM (inactive). Further, the GI50 with KM12 is 31.8 µM (inactive); with 786-0, 23.1 µM (inactive); in the experiment on CCRF-CEM, 79.4 µM (inactive); in the experiment with SF-295, 32.7 µM (inactive); in the experiment with NCI-H226, > 100 µM (inactive); in the experiment with M14 it was 27.7 µM (inactive).

The values are drawn from ChEMBL document CHEMBL1201862, “PubChem BioAssay data set” (2004).
